This test addresses T1, PltZ.
T1 construct: full gene cloned in pET-28b-derived vector, E. coli BL21 (DE3), Ni-NTA purified (His tag implied)
Nature of the test: isothermal titration calorimetry. The arrangement: species or system Pseudomonas aeruginosa. The settings on record: 25 °C; 20 mM Tris pH 8.0, 100 mM NaCl; independent binding model; read-out: binding constant. Background: ITC needs no label: the signal is the heat of the interaction.

Regarding `CC(=O)c1c(O)cc(O)c(C(C)=O)c1O` [2,4-diacetylphloroglucinol], the Kd was approximately 190 nM.

Source of the values: paper PMC7360687, “The Regulator PltZ Regulates a Putative ABC Transporter System PltIJKNOP of Pseudomonas aeruginosa ATCC 27853 in Response to the Antimicrobial 2,4-Diacetylphloroglucinol” (Frontiers in Microbiology, 2020).
